Legend:
[1] = test system: green foxtail; test: Test Example 5: herbicidal effect by foliage application, plastic box (Table 20, symbol G); format: in vivo, green foxtail (Setaria viridis); conditions: 320 g/ha, evaluated three weeks after application
How it was run: (§1)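 Plants sown in sterilized diluvial soil and grown 14 days in a greenhouse at 25° C to 30° C, then sprayed on the foliage with the compound's emulsion diluted in water to a predetermined herbicide amount. Injury to weeds and crops scored three weeks after application on a visual rating scale.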

[2] = test system: blackgrass; test: Test Example 5: herbicidal effect by foliage application, plastic box (Table 20, symbol J); format: in vivo, blackgrass (Alopecurus myosuroides); conditions: 320 g/ha, evaluated three weeks after application
How it was run: as §1

[3] = test system: barnyard grass; test: Test Example 5: herbicidal effect by foliage application, plastic box (Table 20, symbol H); format: in vivo, barnyard grass (Echinochloa crus-galli); conditions: 320 g/ha, evaluated three weeks after application
How it was run: as §1

[4] = test system: chickweed; test: Test Example 5: herbicidal effect by foliage application, plastic box (Table 20, symbol P); format: in vivo, common chickweed (Stellaria media); conditions: 320 g/ha, evaluated three weeks after application
How it was run: as §1

[5] = test system: windgrass; test: Test Example 5: herbicidal effect by foliage application, plastic box (Table 20, symbol L); format: in vivo, windgrass (Apera spica-venti); conditions: 320 g/ha, evaluated three weeks after application
How it was run: as §1

[6] = test system: barnyard grass; test: Test Example 3: herbicidal effect by foliage application, Wagner pot (Table 18, symbol H); format: in vivo, barnyard grass (Echinochloa crus-galli)
How it was run: (§2)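 Plants were sown in alluvial soil held under 0.1–0.5 cm standing water and grown 14 days in a greenhouse at 25–30 °C. An emulsifiable formulation, water-diluted to the set dose, was then sprayed onto the foliage, and effects were scored three weeks later using previously defined criteria.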

[7] = test system: Italian ryegrass; test: Test Example 5: herbicidal effect by foliage application, plastic box (Table 20, symbol K); format: in vivo, Italian ryegrass (Lolium multiflorum); conditions: 320 g/ha, evaluated three weeks after application
How it was run: as §1

[8] = test system: redroot pigweed; test: Test Example 5: herbicidal effect by foliage application, plastic box (Table 20, symbol N); format: in vivo, redroot pigweed (Amaranthus retroflexus); conditions: 320 g/ha, evaluated three weeks after application
How it was run: as §1

[9] = test system: velvetleaf; test: Test Example 5: herbicidal effect by foliage application, plastic box (Table 20, symbol M); format: in vivo, velvetleaf (Abutilon theophrasti); conditions: 320 g/ha, evaluated three weeks after application
How it was run: as §1

[10] = test system: wild oat; test: Test Example 5: herbicidal effect by foliage application, plastic box (Table 20, symbol I); format: in vivo, wild oat (Avena fatua); conditions: 320 g/ha, evaluated three weeks after application
How it was run: as §1

[11] = test system: false cleavers; test: Test Example 5: herbicidal effect by foliage application, plastic box (Table 20, symbol Q); format: in vivo, false cleavers (Galium spurium); conditions: 320 g/ha, evaluated three weeks after application
How it was run: as §1

[12] = test system: southern crabgrass; test: Test Example 5: herbicidal effect by foliage application, plastic box (Table 20, symbol F); format: in vivo, southern crabgrass (Digitaria ciliaris); conditions: 320 g/ha, evaluated three weeks after application
How it was run: as §1

[13] = test system: rice flat sedge; test: Test Example 3: herbicidal effect by foliage application, Wagner pot (Table 18, symbol E); format: in vivo, rice flat sedge (Cyperus iria)
How it was run: as §2

[14] = test system: lambsquarters; test: Test Example 5: herbicidal effect by foliage application, plastic box (Table 20, symbol O); format: in vivo, lambsquarters (Chenopodium album); conditions: 320 g/ha, evaluated three weeks after application
How it was run: as §1

[15] = test system: persian speedwell; test: Test Example 5: herbicidal effect by foliage application, plastic box (Table 20, symbol R); format: in vivo, Persian speedwell (Veronica persica); conditions: 320 g/ha, evaluated three weeks after application
How it was run: as §1

[16] = test system: Chinese sprangletop; test: Test Example 3: herbicidal effect by foliage application, Wagner pot (Table 18, symbol D); format: in vivo, chinese sprangletop (Leptochloa chinensis)
How it was run: as §2

[17] = amount of applied herbicide 320 g/ha
[18] = foliage application after 14-day growth

CCCC(=O)Oc1c(C)nn(C)c(=O)c1-c1c(-c2ccc3c(c2)OCCO3)sc2ccc(C)cc12 [2-159]
herbicidal effect on G: green foxtail (criteria 0-5) ([1]; foliage application): 0 (Herbicidal rate of 5% or less (almost no effect))
herbicidal effect on J: blackgrass (criteria 0-5) ([2]; foliage application): 0 (Herbicidal rate of 5% or less (almost no effect))
herbicidal effect on H: barnyard grass (criteria 0-5) ([3]; foliage application): 0 (Herbicidal rate of 5% or less (almost no effect))
herbicidal effect on P: chickweed (criteria 0-5) ([4]; foliage application): 4 (Herbicidal rate of 70% or more and less than 90%)
herbicidal effect on L: windgrass (criteria 0-5) ([5]; foliage application): 0 (Herbicidal rate of 5% or less (almost no effect))
herbicidal effect on H: barnyard grass [6, 17]: 0 (Herbicidal rate of 5% or less (almost no effect))
herbicidal effect on K: Italian ryegrass (criteria 0-5) ([7]; foliage application): 0 (Herbicidal rate of 5% or less (almost no effect))
herbicidal effect on N: redroot pigweed (criteria 0-5) ([8]; foliage application): 5 (Herbicidal rate of 90% or more (almost completely withered))
herbicidal effect on M: velvetleaf (criteria 0-5) ([9]; foliage application): 2 (Herbicidal rate of 20% or more and less than 40%)
herbicidal effect on I: wild oat (criteria 0-5) ([10]; foliage application): 0 (Herbicidal rate of 5% or less (almost no effect))
herbicidal effect on Q: false cleavers (criteria 0-5) ([11]; foliage application): 0 (Herbicidal rate of 5% or less (almost no effect))
herbicidal effect on F: southern crabgrass (criteria 0-5) ([12]; foliage application): 0 (Herbicidal rate of 5% or less (almost no effect))
herbicidal effect on E: rice flat sedge [13, 17]: 3 (Herbicidal rate of 40% or more and less than 70%)
herbicidal effect on O: lambsquarters (criteria 0-5) ([14]; foliage application): 0 (Herbicidal rate of 5% or less (almost no effect))
herbicidal effect on R: persian speedwell (criteria 0-5) ([15]; foliage application): 4 (Herbicidal rate of 70% or more and less than 90%)
herbicidal effect on D: Chinese sprangletop [16, 17]: 0 (Herbicidal rate of 5% or less (almost no effect))

CCCC(=O)Oc1c(C)nn(C)c(=O)c1-c1c(-c2ccc(C(F)(F)F)cc2)sc2cc(Cl)ccc12 [3-146]
herbicidal effect on G: green foxtail (evaluation grade 0-5) [1, 18]: 2 (Herbicidal rate of 20% or more and less than 40%)
herbicidal effect on J: blackgrass (evaluation grade 0-5) [2, 18]: 0 (Herbicidal rate of 5% or less (almost no effect))
herbicidal effect on H: barnyard grass (evaluation grade 0-5) [3, 18]: 0 (Herbicidal rate of 5% or less (almost no effect))
herbicidal effect on P: chickweed (evaluation grade 0-5) [4, 18]: 5 (Herbicidal rate of 90% or more (almost completely withered))
herbicidal effect on L: windgrass (evaluation grade 0-5) [5, 18]: 0 (Herbicidal rate of 5% or less (almost no effect))
herbicidal effect on barnyard grass (H) ([6]; 320 g/ha): 3 (Herbicidal rate of 40% or more and less than 70%)
herbicidal effect on K: Italian ryegrass (evaluation grade 0-5) [7, 18]: 0 (Herbicidal rate of 5% or less (almost no effect))
herbicidal effect on N: redroot pigweed (evaluation grade 0-5) [8, 18]: 3 (Herbicidal rate of 40% or more and less than 70%)
herbicidal effect on M: velvetleaf (evaluation grade 0-5) [9, 18]: 0 (Herbicidal rate of 5% or less (almost no effect))
herbicidal effect on I: wild oat (evaluation grade 0-5) [10, 18]: 0 (Herbicidal rate of 5% or less (almost no effect))
herbicidal effect on Q: false cleavers (evaluation grade 0-5) [11, 18]: 1 (Herbicidal rate of 5% or more and less than 20%)
herbicidal effect on F: southern crabgrass (evaluation grade 0-5) [12, 18]: 1 (Herbicidal rate of 5% or more and less than 20%)
herbicidal effect on rice flat sedge (E) ([13]; 320 g/ha): 3 (Herbicidal rate of 40% or more and less than 70%)
herbicidal effect on O: lambsquarters (evaluation grade 0-5) [14, 18]: 3 (Herbicidal rate of 40% or more and less than 70%)
herbicidal effect on R: persian speedwell (evaluation grade 0-5) [15, 18]: 4 (Herbicidal rate of 70% or more and less than 90%)
herbicidal effect on Chinese sprangletop (D) ([16]; 320 g/ha): 3 (Herbicidal rate of 40% or more and less than 70%)
